Results published in patent US20040229933A1, “Treatment of hypertension” (Pfizer Inc, priority 2003, published 2004).
Ends that are not written are not given here.

Tests used:
GPR54 = GPR54 (Homo sapiens, UniProt Q969F8); settings: cited from earlier work
rat aortic rings = experiment: Isolated rat aorta assay (organ bath, aortic rings); settings: organ bath system
Method: Segments of endothelium intact rat aorta were trim cleaned of fat and surrounding connective tissues and aortic rings strung up in 5 ml organ baths and perfused with oxygenated modified Kreb's solution (118 mM NaCl, 4.7 mM KCl, 25 mM NaHCO3, 11.1 mM glucose, 1.18 mM KH2PO4, 1.18 mM MgSO4 and 2mM CaCl2). Following an equilibration period of approximately 60 min, tissues were challenged with 1 μM phenylephrine (PE). Following a stable response tissues were washed and the above dose of PE was repeated. Once the tissues reached a maximum response 1 μM acetylcholine was administered to determine the percentage of endothelium dependent relaxation. Tissues were washed and cumulative concentration response curves were constructed to Kiss-1 and urotensin-II for a comparison. […] The potential for Kiss-1 mediated vasorelaxation was assessed in aortic rings pre-constricted with 300 nM noradrenaline along with appropriate control tissues with no drug. Drug potency (EC50) and efficacy (Emax) was determined.
Rat aortic rings are set up as described before for measuring Kiss-1 potency and efficacy in a 5 ml organ bath set-up. The potency of antagonist can be determined by constructing a dose response curve to Kiss-1 in the presence of a single concentration of Kiss-1 antagonist or vehicle. […]

[1] = tested on: CHO cells transfected with GPR54; settings: cited from earlier work

Chain of GPR54 (Q969F8 whole entry, species assumed): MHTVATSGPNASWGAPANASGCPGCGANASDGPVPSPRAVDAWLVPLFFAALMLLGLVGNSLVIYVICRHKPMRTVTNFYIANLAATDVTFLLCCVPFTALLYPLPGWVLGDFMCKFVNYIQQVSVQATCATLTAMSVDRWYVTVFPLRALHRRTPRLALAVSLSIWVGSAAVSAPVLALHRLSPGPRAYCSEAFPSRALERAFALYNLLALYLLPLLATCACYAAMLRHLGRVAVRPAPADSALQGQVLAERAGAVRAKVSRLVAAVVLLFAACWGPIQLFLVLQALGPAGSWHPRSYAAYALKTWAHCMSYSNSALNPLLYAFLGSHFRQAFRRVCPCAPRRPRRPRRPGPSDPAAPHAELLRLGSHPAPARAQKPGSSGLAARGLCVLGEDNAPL

Substance	agonist activity at GPR54 (GPR54)	vasoconstriction (rat aortic rings)	migration, chemotaxis and invasion [1]
Kiss-1 (40-54): C-terminal fragment of Kiss-1 (KDLPNYNWNSFGLRF-NH2; UniProt Q15726 107-121, looked up, fragment)	potent agonists	–	–
Kiss-1 (45-54): C-terminal fragment of Kiss-1, derived from the 54 amino acid Kiss peptide sequence; Kiss-1 receptor agonist (YNWNSFGLRF-NH2; UniProt Q15726 112-121, looked up, fragment)	–	vasoconstriction	–
Kiss-1: carboxy-terminally amidated peptide with 54 amino acid residues, also called metastin, isolated from human placenta (GTSLSPPPESSGSPQQPGLSAPHSRQIPAPQGAVLVQREKDLPNYNWNSFGLRF-NH2; UniProt Q15726 68-121, looked up)	potent agonists	potent vasoconstrictor	inhibits migration, chemotaxis and invasion
